Measured values: ChEMBL document CHEMBL5465560, “Selectivity Literature for EUbOPEN Chemogenomic Library” (2024)

Columns and labels:
[1] = target: Serine/threonine-protein kinase 26 (Homo sapiens, UniProt Q9P289); assay: Selectivity interaction (Kinase panel (KiNativ target engagement assay in Jurkat cells)) EUB0001635a STK26; format: cell-based; details: Selectivity number of off-targets 0.0, Selectivity number of targets 233.0, Source Knowledge https://www.sciencedirect.com/science/article/pii/S2451945619300674?via%3Dihub, at 1 µM
Serine/threonine-protein kinase 26, sequence (Q9P289 2-416 limits assumed): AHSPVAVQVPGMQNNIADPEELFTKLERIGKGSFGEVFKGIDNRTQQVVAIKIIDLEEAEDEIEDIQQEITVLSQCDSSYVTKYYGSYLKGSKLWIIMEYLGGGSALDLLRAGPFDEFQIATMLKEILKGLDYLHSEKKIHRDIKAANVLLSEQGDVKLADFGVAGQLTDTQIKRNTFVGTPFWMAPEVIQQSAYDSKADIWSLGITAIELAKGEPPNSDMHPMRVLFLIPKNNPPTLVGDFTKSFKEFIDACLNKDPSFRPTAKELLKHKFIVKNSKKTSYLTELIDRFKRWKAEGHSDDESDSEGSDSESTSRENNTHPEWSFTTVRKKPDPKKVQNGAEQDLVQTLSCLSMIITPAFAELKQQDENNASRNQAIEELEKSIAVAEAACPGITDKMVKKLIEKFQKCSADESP

[2] = target: T1, Bromodomain-containing protein 9 (Homo sapiens, UniProt Q9H8M2); assay: Selectivity interaction (ITC measurement) EUB0000233b BRD9
T1 sequence (Q9H8M2 whole entry): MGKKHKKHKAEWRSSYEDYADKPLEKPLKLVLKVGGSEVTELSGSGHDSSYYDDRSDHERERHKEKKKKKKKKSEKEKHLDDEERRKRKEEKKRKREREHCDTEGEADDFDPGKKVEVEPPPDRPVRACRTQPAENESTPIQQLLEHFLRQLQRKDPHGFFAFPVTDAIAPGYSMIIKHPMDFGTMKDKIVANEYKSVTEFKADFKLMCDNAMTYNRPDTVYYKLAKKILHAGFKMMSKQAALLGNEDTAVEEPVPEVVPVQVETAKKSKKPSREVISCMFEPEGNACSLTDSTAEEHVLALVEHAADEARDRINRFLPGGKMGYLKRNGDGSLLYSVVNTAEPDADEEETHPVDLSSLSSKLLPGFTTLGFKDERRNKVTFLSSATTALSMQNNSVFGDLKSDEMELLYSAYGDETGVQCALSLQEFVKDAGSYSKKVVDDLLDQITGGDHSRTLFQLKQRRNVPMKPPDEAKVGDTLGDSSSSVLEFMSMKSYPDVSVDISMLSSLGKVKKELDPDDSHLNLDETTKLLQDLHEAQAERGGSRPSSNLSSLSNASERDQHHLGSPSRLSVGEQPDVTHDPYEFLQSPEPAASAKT

[3] = target: Platelet-derived growth factor receptor alpha (Homo sapiens, UniProt P16234); assay: Selectivity interaction (KinomeScan (DiscoverX)) EUB0000695a PDGFRA; details: at 100 nM
Platelet-derived growth factor receptor alpha, sequence (P16234 whole entry): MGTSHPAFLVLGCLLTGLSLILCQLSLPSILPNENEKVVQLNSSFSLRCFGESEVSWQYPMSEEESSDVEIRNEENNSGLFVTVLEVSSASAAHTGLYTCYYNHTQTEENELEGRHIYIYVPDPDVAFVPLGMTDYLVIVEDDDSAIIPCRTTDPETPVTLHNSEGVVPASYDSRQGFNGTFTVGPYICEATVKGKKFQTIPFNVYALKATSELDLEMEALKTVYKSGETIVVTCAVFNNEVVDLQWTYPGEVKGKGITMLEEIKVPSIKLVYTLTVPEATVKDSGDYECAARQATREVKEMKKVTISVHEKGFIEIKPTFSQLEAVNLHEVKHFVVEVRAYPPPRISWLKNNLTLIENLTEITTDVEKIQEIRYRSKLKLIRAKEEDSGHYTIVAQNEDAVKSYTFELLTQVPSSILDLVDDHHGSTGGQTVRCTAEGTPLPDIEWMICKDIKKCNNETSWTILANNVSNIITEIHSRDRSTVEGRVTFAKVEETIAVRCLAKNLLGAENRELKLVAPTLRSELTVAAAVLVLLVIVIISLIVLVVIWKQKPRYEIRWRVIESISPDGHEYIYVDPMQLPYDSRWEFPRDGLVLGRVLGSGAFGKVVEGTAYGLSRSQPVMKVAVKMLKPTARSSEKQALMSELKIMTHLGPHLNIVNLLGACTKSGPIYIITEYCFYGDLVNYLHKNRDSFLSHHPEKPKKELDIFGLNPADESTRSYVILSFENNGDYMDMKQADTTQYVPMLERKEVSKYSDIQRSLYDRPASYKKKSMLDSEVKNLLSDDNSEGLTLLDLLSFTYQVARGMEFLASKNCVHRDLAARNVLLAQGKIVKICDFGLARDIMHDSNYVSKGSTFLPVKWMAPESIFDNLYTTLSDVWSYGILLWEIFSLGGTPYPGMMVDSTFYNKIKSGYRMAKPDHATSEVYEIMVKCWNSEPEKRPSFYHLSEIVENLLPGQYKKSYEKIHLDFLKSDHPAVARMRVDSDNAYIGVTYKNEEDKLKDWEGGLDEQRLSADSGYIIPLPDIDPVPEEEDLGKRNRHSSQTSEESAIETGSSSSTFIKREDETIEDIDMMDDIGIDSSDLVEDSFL

[4] = target: T2, Activin receptor type-1B (Homo sapiens) (UniProt P36896); details: at 10 µM
T2 sequence (whole entry): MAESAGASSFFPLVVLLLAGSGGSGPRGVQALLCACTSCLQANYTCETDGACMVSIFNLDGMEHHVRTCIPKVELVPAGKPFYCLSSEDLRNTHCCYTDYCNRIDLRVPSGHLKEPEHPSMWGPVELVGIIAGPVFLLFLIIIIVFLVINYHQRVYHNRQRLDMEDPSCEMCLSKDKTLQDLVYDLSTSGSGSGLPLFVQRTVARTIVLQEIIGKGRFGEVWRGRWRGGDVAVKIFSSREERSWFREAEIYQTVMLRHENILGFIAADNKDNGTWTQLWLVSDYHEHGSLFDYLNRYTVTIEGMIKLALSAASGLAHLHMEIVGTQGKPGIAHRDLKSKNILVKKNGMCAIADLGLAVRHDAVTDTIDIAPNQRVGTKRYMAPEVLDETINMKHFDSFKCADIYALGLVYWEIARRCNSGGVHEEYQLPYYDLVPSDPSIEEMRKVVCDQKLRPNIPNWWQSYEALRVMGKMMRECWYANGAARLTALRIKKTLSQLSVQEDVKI

[5] = target: Serine/threonine-protein kinase pim-2 (Homo sapiens, UniProt Q9P1W9); assay: Selectivity interaction (Enzymatic assay (Eurofins)) EUB0001049a PIM2
Serine/threonine-protein kinase pim-2, sequence (Q9P1W9 whole entry): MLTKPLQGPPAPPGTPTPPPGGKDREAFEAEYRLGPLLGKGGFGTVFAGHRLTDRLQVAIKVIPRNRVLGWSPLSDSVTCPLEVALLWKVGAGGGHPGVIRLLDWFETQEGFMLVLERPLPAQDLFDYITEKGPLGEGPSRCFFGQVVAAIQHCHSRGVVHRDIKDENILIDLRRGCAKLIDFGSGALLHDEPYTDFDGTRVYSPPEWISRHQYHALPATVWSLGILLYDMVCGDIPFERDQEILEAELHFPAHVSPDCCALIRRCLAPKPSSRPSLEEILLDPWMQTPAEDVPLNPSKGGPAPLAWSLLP

[6] = target: BDNF/NT-3 growth factors receptor (Homo sapiens) (UniProt Q16620); assay: Selectivity interaction (KinomeScan (DiscoverX)) EUB0001619a NTRK2; details: at 1 µM
BDNF/NT-3 growth factors receptor (Homo sapiens), sequence (Q16620 32-822 limits assumed): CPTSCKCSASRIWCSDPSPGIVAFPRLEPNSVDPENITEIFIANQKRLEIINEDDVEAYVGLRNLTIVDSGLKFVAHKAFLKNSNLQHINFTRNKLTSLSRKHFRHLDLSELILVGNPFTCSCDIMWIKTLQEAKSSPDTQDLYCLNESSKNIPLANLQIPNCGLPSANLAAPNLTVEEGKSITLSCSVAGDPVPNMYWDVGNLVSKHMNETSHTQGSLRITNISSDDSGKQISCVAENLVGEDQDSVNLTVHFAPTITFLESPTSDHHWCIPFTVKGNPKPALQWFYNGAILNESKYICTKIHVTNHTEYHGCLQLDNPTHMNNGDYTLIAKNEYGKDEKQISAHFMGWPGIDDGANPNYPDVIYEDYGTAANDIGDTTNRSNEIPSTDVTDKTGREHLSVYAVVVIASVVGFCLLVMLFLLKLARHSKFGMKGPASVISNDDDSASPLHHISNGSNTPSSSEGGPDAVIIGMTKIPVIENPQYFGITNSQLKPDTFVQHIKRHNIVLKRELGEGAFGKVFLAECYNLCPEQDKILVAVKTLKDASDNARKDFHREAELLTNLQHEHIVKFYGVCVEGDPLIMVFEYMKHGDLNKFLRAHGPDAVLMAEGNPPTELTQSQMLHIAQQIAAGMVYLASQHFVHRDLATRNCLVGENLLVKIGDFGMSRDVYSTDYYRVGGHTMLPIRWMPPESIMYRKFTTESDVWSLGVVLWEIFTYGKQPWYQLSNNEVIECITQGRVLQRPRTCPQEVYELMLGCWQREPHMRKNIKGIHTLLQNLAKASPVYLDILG

[7] = target: Mitogen-activated protein kinase 8 (Homo sapiens, UniProt P45983); assay: Selectivity interaction (KinomeScan (DiscoverX)) EUB0000607a MAPK8; details: at 10 µM
Mitogen-activated protein kinase 8, sequence (P45983 whole entry): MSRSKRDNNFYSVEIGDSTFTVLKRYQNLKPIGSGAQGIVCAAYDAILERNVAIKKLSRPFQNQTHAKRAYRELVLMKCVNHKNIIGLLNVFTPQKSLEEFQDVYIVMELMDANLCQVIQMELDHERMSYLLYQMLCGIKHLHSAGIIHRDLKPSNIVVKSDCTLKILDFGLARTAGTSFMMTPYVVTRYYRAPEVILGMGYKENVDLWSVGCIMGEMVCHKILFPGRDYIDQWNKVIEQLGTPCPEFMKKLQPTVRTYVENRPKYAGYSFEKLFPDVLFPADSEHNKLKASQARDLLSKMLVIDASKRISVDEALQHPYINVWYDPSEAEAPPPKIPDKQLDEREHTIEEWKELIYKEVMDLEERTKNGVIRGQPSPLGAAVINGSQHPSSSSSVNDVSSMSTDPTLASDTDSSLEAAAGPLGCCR

[8] = target: T3, Aurora kinase A (Homo sapiens) (UniProt O14965); assay: Selectivity interaction (ActivX KiNativ screen (kinase selectivity in THP-1 cell lysates)) EUB0000639a STK6; format: subcellular; details: lysate, at 0.2 µM
T3 sequence (whole entry): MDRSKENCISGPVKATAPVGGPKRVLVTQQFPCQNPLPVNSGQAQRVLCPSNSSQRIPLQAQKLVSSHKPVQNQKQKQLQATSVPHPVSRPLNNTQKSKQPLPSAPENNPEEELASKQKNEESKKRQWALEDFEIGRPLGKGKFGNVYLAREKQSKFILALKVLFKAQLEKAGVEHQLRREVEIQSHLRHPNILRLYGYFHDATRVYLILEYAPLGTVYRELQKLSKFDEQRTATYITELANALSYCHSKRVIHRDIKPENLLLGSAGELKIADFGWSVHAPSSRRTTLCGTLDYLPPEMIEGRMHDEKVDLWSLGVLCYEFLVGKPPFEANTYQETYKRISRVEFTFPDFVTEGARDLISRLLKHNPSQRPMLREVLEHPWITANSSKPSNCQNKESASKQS

[9] = target: Serine/threonine-protein kinase MRCK gamma (Homo sapiens) (UniProt Q6DT37); assay: Selectivity interaction (KinomeScan (DiscoverX)) EUB0000655a CDC42BPG; details: at 10 µM
Serine/threonine-protein kinase MRCK gamma (Homo sapiens), sequence (Q6DT37 whole entry): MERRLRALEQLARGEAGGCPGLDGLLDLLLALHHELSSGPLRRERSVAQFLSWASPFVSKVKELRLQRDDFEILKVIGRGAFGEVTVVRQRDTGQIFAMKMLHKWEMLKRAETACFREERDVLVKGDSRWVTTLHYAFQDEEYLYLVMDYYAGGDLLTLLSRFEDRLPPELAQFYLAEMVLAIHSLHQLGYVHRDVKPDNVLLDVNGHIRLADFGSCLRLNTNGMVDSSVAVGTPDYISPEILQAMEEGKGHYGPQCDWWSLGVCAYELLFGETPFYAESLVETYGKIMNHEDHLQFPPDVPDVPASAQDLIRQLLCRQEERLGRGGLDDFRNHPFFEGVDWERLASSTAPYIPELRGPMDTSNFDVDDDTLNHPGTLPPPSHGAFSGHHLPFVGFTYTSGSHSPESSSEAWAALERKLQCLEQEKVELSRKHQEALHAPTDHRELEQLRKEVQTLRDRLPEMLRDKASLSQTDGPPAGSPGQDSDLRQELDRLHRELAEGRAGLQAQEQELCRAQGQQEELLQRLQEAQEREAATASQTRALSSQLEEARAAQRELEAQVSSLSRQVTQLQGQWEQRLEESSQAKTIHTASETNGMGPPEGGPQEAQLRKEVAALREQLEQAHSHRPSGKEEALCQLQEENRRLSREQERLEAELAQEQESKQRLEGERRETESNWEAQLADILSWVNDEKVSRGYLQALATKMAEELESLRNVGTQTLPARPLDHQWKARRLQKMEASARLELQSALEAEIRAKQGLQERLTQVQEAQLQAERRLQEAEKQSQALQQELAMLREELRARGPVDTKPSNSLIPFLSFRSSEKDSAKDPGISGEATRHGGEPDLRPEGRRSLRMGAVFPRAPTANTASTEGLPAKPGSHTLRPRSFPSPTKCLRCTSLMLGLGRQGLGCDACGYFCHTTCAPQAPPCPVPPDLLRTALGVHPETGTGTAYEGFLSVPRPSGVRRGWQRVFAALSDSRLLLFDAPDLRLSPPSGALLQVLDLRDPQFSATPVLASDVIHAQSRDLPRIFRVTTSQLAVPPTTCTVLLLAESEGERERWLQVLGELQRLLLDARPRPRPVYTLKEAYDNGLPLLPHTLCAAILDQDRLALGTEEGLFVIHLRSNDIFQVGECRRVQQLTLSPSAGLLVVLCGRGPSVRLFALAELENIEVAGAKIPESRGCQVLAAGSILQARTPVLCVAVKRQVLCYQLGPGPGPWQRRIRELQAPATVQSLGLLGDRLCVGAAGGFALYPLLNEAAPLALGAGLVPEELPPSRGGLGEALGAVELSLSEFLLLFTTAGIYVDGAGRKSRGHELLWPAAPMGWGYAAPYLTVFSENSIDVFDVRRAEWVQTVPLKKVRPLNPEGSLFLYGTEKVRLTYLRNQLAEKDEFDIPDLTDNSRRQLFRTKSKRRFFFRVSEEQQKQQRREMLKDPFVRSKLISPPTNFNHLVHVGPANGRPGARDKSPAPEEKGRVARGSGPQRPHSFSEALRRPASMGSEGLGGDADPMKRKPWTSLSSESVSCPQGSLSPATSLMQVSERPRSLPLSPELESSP

[10] = target: T4, Serine/threonine-protein kinase Nek5 (Homo sapiens) (UniProt Q6P3R8); assay: Selectivity interaction (Ambit KINOMEscan and KiNATiv profiling in Jurkat cells) EUB0000090b NEK5; format: cell-based; details: at 1 µM
T4 sequence (whole entry): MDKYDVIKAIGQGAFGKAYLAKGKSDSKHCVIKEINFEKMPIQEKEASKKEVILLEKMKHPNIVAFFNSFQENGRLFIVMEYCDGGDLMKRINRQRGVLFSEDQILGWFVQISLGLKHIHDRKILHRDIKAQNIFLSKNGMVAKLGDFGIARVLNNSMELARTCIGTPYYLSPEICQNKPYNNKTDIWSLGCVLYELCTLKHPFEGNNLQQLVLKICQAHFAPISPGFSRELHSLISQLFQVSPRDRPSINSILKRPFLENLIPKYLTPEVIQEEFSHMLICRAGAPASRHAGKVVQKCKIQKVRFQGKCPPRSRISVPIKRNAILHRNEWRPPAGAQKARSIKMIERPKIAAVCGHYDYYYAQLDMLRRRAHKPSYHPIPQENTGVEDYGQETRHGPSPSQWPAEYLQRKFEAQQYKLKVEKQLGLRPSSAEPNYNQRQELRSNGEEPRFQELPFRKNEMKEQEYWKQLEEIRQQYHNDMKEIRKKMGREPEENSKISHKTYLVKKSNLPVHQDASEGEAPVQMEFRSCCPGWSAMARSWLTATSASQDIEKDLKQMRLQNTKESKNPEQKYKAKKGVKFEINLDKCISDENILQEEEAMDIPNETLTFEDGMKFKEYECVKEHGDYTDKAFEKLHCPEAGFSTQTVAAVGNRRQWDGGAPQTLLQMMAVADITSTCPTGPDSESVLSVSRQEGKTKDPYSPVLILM

**Q.** With `C=CC(=O)Nc1ccc(C(=O)Nc2[nH]nc3c2CN(C(=O)N[C@H](CN(C)C)c2ccccc2)C3(C)C)cc1` as the compound, how does the % of engagement [1] read?
**A.** The % of engagement was 26%.

**Q.** Which Kd [2] does the source give for `CN(C)CCCOc1ccc(-c2cc(NCCCn3cccn3)nc(S(C)(=O)=O)n2)cc1` here?
**A.** The Kd was 1100 nM.

**Q.** How did the % of control [3] turn out when `Cc1cc(F)c(C(=O)Nc2cccc(-c3nncn3C(C)C)n2)cc1-n1cnc(C2CC2)c1` was run?
**A.** Its % of control is 100%.

**Q.** Which % of control [4] does the source give for `Cc1cc([C@@H](C)Nc2ccccc2C(=O)O)c2nc(N3CCOCC3)cc(=O)n2c1` [AZD-6482] here?
**A.** The % of control was 93%.

**Q.** How did the IC50 [5] turn out when `COc1cc(Nc2nc(C)cc(-c3cnn4nc(OC)ccc34)n2)cc(C(F)(F)F)c1` was run?
**A.** The IC50 was over 10000 nM.

**Q.** With `N#Cc1cccc(-c2c[nH]c3ncnc(N4CCOCC4)c23)c1` as the compound, how does the % of control [6] read?
**A.** The % of control was 63%.

**Q.** Which % of control [7] does the source give for `CNC(=O)Nc1ccc(-c2nc(N3CC4CCC(C3)O4)c3cnn(C4CCC5(CC4)OCCO5)c3n2)cc1` here?
**A.** Its % of control is 91%.

**Q.** For `CC[C@@H]1[C@H](F)C(=O)N[C@@H]1COc1nccc2cc(C(N)=O)c(OC)cc12` [ZIMLOVISERTIB], which % of inhibition [8] is on record?
**A.** Its % of inhibition is -1%.

**Q.** For `CN(C)CCOc1ccc(-c2nc(-c3ccncc3)c(-c3ccc4c(c3)CC/C4=N\O)[nH]2)cc1`, which % of control [9] is on record?
**A.** Its % of control is 32%.

**Q.** For `CN(C)C/C=C/C(=O)Nc1ccc(C(=O)N2CCCC(Nc3ncc(Cl)c(-c4c[nH]c5ccccc45)n3)C2)cc1` (stereo not given), which % of control [10] is on record?
**A.** The % of control was 86%.
